{"source": "patent US20260234164A1", "about": "“BIPHENYL COMPOUND AS IMMUNOMODULATOR, PREPARATION METHOD THEREFOR AND USE THEREOF” (SHENZHEN CHIPSCREEN BIOSCIENCES CO., LTD., priority 2021, published 2026)", "key": {"CD80/PD-L1 binding": {"target": "T1, CD80/PD-L1 binding (Homo sapiens, UniProt Q9NZQ7)", "T1 construct": "purchased Sino Biological Inc. 10084-H02H-100 (PD-L1-Fc); 10698-H08H-100 (His-CD80)", "T1 sequence (Q9NZQ7 19-239 limits assumed)": "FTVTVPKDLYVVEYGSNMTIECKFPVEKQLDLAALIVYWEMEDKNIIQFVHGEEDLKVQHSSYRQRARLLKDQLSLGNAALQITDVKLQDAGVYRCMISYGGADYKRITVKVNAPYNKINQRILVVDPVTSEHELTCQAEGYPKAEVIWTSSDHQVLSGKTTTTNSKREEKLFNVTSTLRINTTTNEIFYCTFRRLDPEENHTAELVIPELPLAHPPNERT", "test": "HTRF inhibition of CD80/PD-L1 binding in vitro", "conditions": "His-CD80 100 nM, PD-L1-Fc 2 nM, read-out: IC50 inhibiting CD80/PD-L1 binding in vitro", "description": "In addition to PD-1, PD-L1 can also exert immunosuppressive activity by binding to CD80. Similarly, in vitro experiments of binding or binding inhibition of CD80 and PD-L1 can also be measured by homogeneous time-resolved fluorescence (HTRF). When the anti-hFc-Eu^3+ antibody and anti-His-XL665 antibody were bound to the hFC tag fused to PD-L1 and the His tag fused to CD80 respectively, and excited with a 320 nm wavelength laser, the binding of PD-L1 and CD80 enabled energy to be transferred from the Eu element to the XL665 fluorescein, which was excited to emit light. When the inhibitor of the interaction between PD-L1 and CD80 was added, the combination of the two was destroyed, so that the distance between Eu and XL665 was far away, the energy cannot be transferred, and XL665 would not be excited.\nRecombinant human CD80 protein with His tag (His-CD80 protein, Cat #: 10698-H08H-100), and recombinant human PD-L1-Fc fusion protein (PD-L1-Fc fusion protein, Cat #: 10084-H02H-100) were purchased from Sino Biological Inc., anti-hFc-Eu^3+ antibody and anti-His-XL665 antibody were purchased from Cisbio Company, and other related reagents such as dilution buffer (Diluent buffer 5, Cat #: 62DL5DDC), detection buffer (PPI-Europium detection buffer, Cat #: 61DB9RDF) were purchased from Cisbio Company. Fluorescence detection instrument Tecan (Spark 10 M) was purchased from Switzerland Tecan Company.\n(1) Experimental preparation: The test compound was diluted with dilution buffer into different concentration gradients (the highest final concentration in 20 μL final reaction system was 10 μM), His-CD80 protein was diluted to 800 nM (the final concentration in 20 μL final reaction system was 100 nM), and the PD-L1-Fc fusion protein was diluted to 16 nM (final concentration was 2 nM). The anti-His-XL665 antibody and anti-hFc-Eu^3+ antibody were respectively diluted 20 times and 100 times using the detection buffer according to the reagent requirements.\n(2) 5 μL of test compound, 2.5 μL of Hid-CD80 protein and 2.5 μL of […] solution were mixed, and incubated at room temperature for 15 min. Then the system was added with 5 μL of anti-His-XL665 antibody and 5 μL of anti-hFc-Eu^3+ antibody, incubated for another 3 h, and then detected.\n(3) When detecting the reaction, a control group was provided, including a 0% inhibition positive control without adding test compounds and a 100% inhibition negative control without adding CD-80 protein. All detections were performed with duplicates.\n(4) The fluorescence signal of each well was measured using a fluorescence detector Tecan (Spark 10M) at an excitation wavelength of 320 nm, and emission wavelengths of 620 nm and 665 nm, respectively. The intensity of the mutual binding of CD80 and PD-L1 referred to the ratio of fluorescence signals Em665/Em620.\n(5) The binding inhibition rate of the test compound was calculated as follows: Inhibition rate (%)=[1−(Fluorescence signal ratio of detection well-fluorescence signal ratio of 100% inhibition negative control)]/(fluorescence signal ratio of 0% inhibition positive control-fluorescence signal ratio of 100% inhibition negative control)×100%. After calculating the inhibition rate on CD80/PD-L1 binding of the test compounds with different concentration gradients, the 50% inhibitory concentration (IC50) was calculated."}, "[1]": {"test": "Pharmacokinetic assay after repeated oral administration", "format": "in vivo, B-hPD-1/hPD-L1 mice", "conditions": "female, B-hPD-1/hPD-L1, mouse; plasma, 50 mg/kg oral once a day, after administration on the 18th day", "experimental": "Twenty-four female B-hPD-1/hPD-L1 mice aged 6-8 weeks were purchased from Biocytogen Jiangsu Gene Biotechnology Co., Ltd. The mice were randomly divided into 4 groups, 6 mice in each group. The test compounds were prepared in a vehicle containing 5% DMSO, 60% PEG400 and 35% purified water, including I-1 and 3 control molecules Example 17, Compound 14 (INCB086550), and Example 180. The compounds were administered orally at 50 mg/kg, once a day. The blood was collected alternately through the fundus venous plexus after the administration on the 18th day. The blood collection time points were 15 min, 30 min, 1 h, 2 h, 4 h, 8h, 24 h and 32h. About 0.1 mL of blood was collected in a centrifuge tube (anticoagulated with sodium heparin), and centrifuged at 5000 rpm for 5 min. Then the plasma was separated, and frozen at −20° C. for later detection. After the plasma samples were processed, the concentration of the compounds in the plasma was determined by liquid chromatography-mass spectrometry (LC-MS/MS). The pharmacokinetic parameters were calculated using Phoenix WinNonlin 7.0."}, "[2]": {"test": "Tumor tissue distribution assay in MC38-PD-L1 tumor-bearing mice", "format": "in vivo, B-hPD-1/hPD-L1 humanized mice", "conditions": "50 mg/kg oral once/day", "description": "16 B-hPD-1/hPD-L1 humanized female mice, aged 6-8 weeks were purchased from Biocytogen Jiangsu Gene Biotechnology Co., Ltd. After 1 week of adaptation, the mice were subcutaneously inoculated with MC38-PD-L1 cells at 2×10^6 cells/site. After the tumor grew to about […], the mice were divided into 4 groups, 4 mice in each group. The test compounds were formulated in a vehicle containing 5% DMSO, 60% PEG400 and 35% purified water, including I-1 and 3 control molecules Example 17, Compound 14 (INCB086550), and Example 180. The compounds were orally administered at 50 mg/kg, once/day. The blood and tumor tissue were collected 4 h and 24 h after administration on the 18th day. A certain amount of tissue was weighed, and added with phosphate-buffered saline (PBS) solution for homogenization. After the sample was processed, it was analyzed by LC-MS/MS to determine the concentration of the compound in plasma and tissue."}}, "note": "pIC50: −log10 of the molar value."}
{"smiles": "[2H]C([2H])([2H])OCC12CCC(CCN3CCc4c(nc(C(=O)Nc5cccc(-c6cccc(NC(=O)c7nc8c(n7C)CCN(CCC79CCC(C(=O)O)(CC7)C9)C8)c6Cl)c5Cl)n4C)C3)(CC1)C2", "note": "[Compound I-1, 4-(2-(2-((2,2′-dichloro-3′-(5-(2-(4-((methoxy-d3)methyl)bicyclo[2.2.1]heptane-1-yl)ethyl)-1-methyl-4,5,6,7-tetrahydro-1H-imidazo[4,5-c]pyridine-2-carboxamido)-[1,1′-biphenyl]-3-yl)carbamoyl)-1-methyl-1,4,6,7-tetrahydro-5H-imidazo[4,5-c]pyridin-5-yl)ethyl)bicyclo[2.2.1]heptane-1-carboxylic acid]", "values": [{"measurement": "pIC50", "setting": "CD80/PD-L1 binding", "value": 9.24}, {"measurement": "AUC(0-t)", "setting": "[1]", "value": 123, "unit": "µg·h/mL"}, {"measurement": "MRT", "setting": "[1]", "value": 13.5, "unit": "h"}, {"measurement": "half-life", "setting": "[1]", "value": 10.3, "unit": "h"}, {"measurement": "Ratio of I-1 to control molecule (tumor tissue concentration)", "setting": "[2]; 4 h after administration on the 18th day", "value": 1.0}, {"measurement": "Ratio of I-1 to control molecule (tumor tissue concentration)", "setting": "[2]; 24 h after administration on the 18th day", "value": 1.0}, {"measurement": "concentration at 4 h", "setting": "[2]; female, B-hPD-1/hPD-L1 humanized, mouse, tumor tissue, 4 h after administration on the 18th day", "value": 39200, "unit": "ng/g"}, {"measurement": "concentration at 24 h", "setting": "[2]; female, B-hPD-1/hPD-L1 humanized, mouse, tumor tissue, 24 h after administration on the 18th day", "value": 27200, "unit": "ng/g"}]}
{"smiles": "[2H]C([2H])([2H])OCC12CCC(CCN3CCc4c(nc(C(=O)Nc5cccc(-c6cccc(NC(=O)c7nc8c(n7C([2H])([2H])[2H])CCN(CCC79CCC(C(=O)O)(CC7)C9)C8)c6Cl)c5C)n4C([2H])([2H])[2H])C3)(CC1)C2", "note": "[Compound I-9, 4-(2-(2-((2-chloro-3′-(5-(2-(4-((methoxy-d3)methyl)bicyclo[2.2.1]heptane-1-yl)ethyl)-1-(methyl-d3)-4,5,6,7-tetrahydro-1H-imidazo[4,5-c]pyridine-2-carboxamido)-2′-methyl-[1,1′-biphenyl]-3-yl)carbamoyl)-1-(methyl-d3)-1,4,6,7-tetrahydro-5H-imidazo[4,5-c]pyridin-5-yl)ethyl)bicyclo[2.2.1]heptane-1-carboxylic acid]", "values": [{"measurement": "pIC50", "setting": "CD80/PD-L1 binding", "value": 8.47}]}
{"smiles": "[2H]C([2H])([2H])OCC12CCC(CCN3CCc4c(nc(C(=O)Nc5cccc(-c6cccc(NC(=O)c7nc8c(n7C([2H])([2H])[2H])CCN(CCC79CCC(C(=O)O)(CC7)C9)C8)c6Cl)c5Cl)n4C([2H])([2H])[2H])C3)(CC1)C2", "note": "[Compound I-5, 4-(2-(2-((2,2′-dichloro-3′-(5-(2-(4-((methoxy-d3)methyl)bicyclo[2.2.1]heptane-1-yl)ethyl)-1-(methyl-d3)-4,5,6,7-tetrahydro-1H-imidazo[4,5-c]pyridine-2-carboxamido)-[1,1′-biphenyl]-3-yl)carbamoyl)-1-(methyl-d3)-1,4,6,7-tetrahydro-5H-imidazo[4,5-c]pyridin-5-yl)ethyl)bicyclo[2.2.1]heptane-1-carboxylic acid]", "values": [{"measurement": "pIC50", "setting": "CD80/PD-L1 binding", "value": 8.95}]}
{"smiles": "[2H]C([2H])([2H])OCC12CCC(CCN3CCc4c(nc(C(=O)Nc5cccc(-c6cccc(NC(=O)c7nc8c(n7C([2H])([2H])[2H])CCN(CCC79CCC(C(=O)O)(CC7)C9)C8)c6C)c5Cl)n4C([2H])([2H])[2H])C3)(CC1)C2", "note": "[Compound I-11, 4-(2-(2-((2′-chloro-3′-(5-(2-(4-((methoxy-d3)methyl)bicyclo[2.2.1]heptane-1-yl)ethyl)-1-(methyl-d3)-4,5,6,7-tetrahydro-1H-imidazo[4,5-c]pyridine-2-carboxamido)-2-methyl-[1,1′-biphenyl]-3-yl)carbamoyl)-1-(methyl-d3)-1,4,6,7-tetrahydro-5H-imidazo[4,5-c]pyridin-5-yl)ethyl)bicyclo[2.2.1]heptane-1-carboxylic acid]", "values": [{"measurement": "pIC50", "setting": "CD80/PD-L1 binding", "value": 8.49}]}
